In US20200255492A1, “LEPTIN PEPTIDES AND THEIR USE FOR TREATING NEUROLOGICAL DISORDERS” (UNIVERSITY OF DUNDEE, priority 2017, published 2020):

Key:
[1] = system: p-Tau in hippocampal neurons; assay: Immunocytochemistry of phosphorylated tau and p-tau/PSD-95 co-localization; assay type: cell-based, Sprague-Dawley rats; conditions: for % co-localization of p-Tau and PSD-95 in Aβ1-42-treated neurons / p-Tau levels in Aβ1-42-treated neurons: Aβ1-42 1 μM plus leptin 10 nM or leptin(116-130)
Protocol: Hippocampal cultures were prepared as previously (Moult et al, 2010). Neonatal Sprague-Dawley rats (1-3 d old) were […] killed by cervical dislocation in accordance with the UK Animals (Scientific Procedures Act) 1986 legislation. Hippocampi were removed, and after washing in HEPES-buffered saline comprising (mM) 135 NaCl; 5 KCl; 1 CaCl2; 1 MgCl2; 10 HEPES; and 25 D-glucose at […], were treated with papain (1.5 mg ml21; Sigma-Aldrich) for 20 min at 37° C. Dissociated cells were plated onto sterile dishes (35 mm diameter; Greiner Bio-One, Kremsmun-ster, Austria) treated with poly-D-lysine (20 μg ml^−1; 1-2 h). Cultures were maintained in serum replacement medium (SR2; Sigma-Aldrich) in a humidified atmosphere of 5% CO2 and […] at 37° C. for up to 2 wk.
Phosphorylated tau was labelled with primary antibody rabbit anti-tau (Ab-396) polyclonal antibody (1:500, Gen Script) corresponding to phosphorylation site of serine 396 (Y-K-S^P-P-V). To visualise p-tau labelling, neurons were then incubated for 30 min with Alexa fluor555 donkey anti-rabbit IgG secondary antibody (1:250, Thermo Fisher Scientific). For synaptic localisation of p-tau, a secondary primary antibody was then added to compare p-tau localization relative to the synaptic marker, PSD95 (mouse anti-PSD-95, 1:500, Thermo Fisher Scientific) for 30 min. PSD-95 labelling was visualized by incubating with a goat anti-mouse Alexa Fluor […] antibody (1:500; Thermo Fisher Scientific) for 30 min.
A Zeiss LSM510 confocal microscope was used for image acquisition and analysis. Images were obtained using a 10-s scan speed in single tracking mode or multi-tracking mode for dual labelling experiments. The intensity of immunostaining was measured off-line using Lasersharp software (Zeiss Lasersharp), whereby analysis lines of 50 μm length were drawn along randomly selected dendritic regions. All data were obtained from at least three different cultures from different animals. Imaging conditions including illumination intensity and photomultiplier gains were kept constant between treatments for each experiment. In addition, data were normalised relative to the mean fluorescence intensity obtained from control neurons. For synaptic co-localisation experiments, tau and PSD-95 positive immunostaining were compared. The number of tau-positive sites that co-localized with PSD-95 positive sites were counted and expressed as a percentage of total positive sites (peaks of intensity).

[2] = system: juvenile hippocampal slices; assay: HFS-induced synaptic plasticity and its inhibition by Aβ1-42; assay type: cell-based, Sprague Dawley rats; conditions: for synaptic transmission after HFS in slices exposed to Aβ1-42: 25 nM before Aβ1-42
Protocol: (§1) Parasagittal hippocampal slices (300 μm) were prepared from either P13-21 or 12-24-week-old male Sprague Dawley rats as previously (Moult et al. 2010). Brains were rapidly removed and placed in ice-cold artificial CSF (aCSF; bubbled with 95% O2 and 5% CO2) containing the following (in mm): 124 NaCl, 3 KCl, 26 NaHCO3, 1.25 NaH2PO4, 2 CaCl2, 1 MgSO4, and 10 d-glucose. Once prepared, parasagittal slices were allowed to recover at room temperature in oxygenated aCSF for 1 h before use. Slices were transferred to a submerged chamber maintained at room temperature and perfused with artificial cerebrospinal fluid at 2 ml min^−1. Standard extracellular recordings were used to monitor evoked field excitatory postsynaptic potentials (fEPSP) from stratum radiatum. The Schaffer collateral-commissural pathway was stimulated (constant voltage; 0.1 ms) at 0.033 Hz, using a stimulus intensity that evoked a peak amplitude ˜50% of the maximum. Synaptic potentials were low pass filtered at 2 kHz and digitally sampled at 10 kHz. The fEPSP slope was measured and expressed relative to baseline. Synaptic records are the average of 4 consecutive responses and stimulus artefacts are blanked for clarity. Recordings were made using an Axopatch 200B amplifier and analyzed using LTP v2.4 software. In synaptic plasticity studies, the degree of potentiation was calculated 30-35 min after HFS and expressed as a percentage of baseline±standard error of mean (SEM).
Several studies indicate that soluble Aβ oligomers impair activity-dependent synaptic plasticity, as exposure to Aβ inhibits hippocampal LTP (Shankar et al. 2008; Li et al. 2009) and enhances LTD (Shankar et al. 2008). Moreover, our recent studies indicate that leptin reverses the detrimental effects of Aβ1-42 on both LTP and LTD (Doherty et al. 2013). Thus we assessed if either of the fragments mirrored the protective actions of leptin on hippocampal synaptic plasticity. Initially we determined that application of leptin prevented the acute effects of Aβ1-42 on LTP. In control slices, synaptic plasticity was induced using high frequency stimulation (HFS; 100 Hz 10 trains of 8 stimuli) which increased synaptic transmission to 127±3.4% of baseline (n=8; P<0.01).

[3] = system: juvenile hippocampal slices; assay: Subthreshold LFS: Aβ1-42-induced LTD; assay type: cell-based, Sprague Dawley rats; conditions: for basal synaptic transmission: 10 nM; for synaptic transmission after LFS (magnitude of Aβ1-42-induced LTD): 10 nM plus Aβ1-42
Protocol: as §1
It is known that oligomeric Aβ promotes the induction of LTD (Shankar et al. 2008) and that exposure to a low concentration of leptin (10 nM) prevents facilitation of hippocampal LTD by Aβ1-42 (Doherty et al. 2013). Thus we assessed if either of the leptin fragments mirror leptin action. Initially we verified that leptin prevented Aβ1-42-induced LTD. […] Furthermore, leptin (10 nM) reduced the magnitude of Aβ1-42-induced LTD such that LFS depressed synaptic transmission to 101±5.3% of baseline in leptin-treated slices (n=4; P>0.05; FIG. 4B). To establish if the leptin fragments mirrored leptin action the effects of leptin (116-130) or leptin (22-56) were also examined.

Row | Substance | p-Tau staining, Aβ1-42 alone ([1]; 1 μM) | synaptic levels of p-Tau (p-Tau/PSD-95), Aβ1-42 alone ([1]; 1 μM) | synaptic transmission after HFS, Aβ peptide alone ([2]; control slices 127±3.4%, 40 min) | synaptic transmission after subthreshold LFS (LTD), Aβ1-42 alone ([3]; vehicle-treated slices 94±5.6%) | % co-localization of p-Tau and PSD-95 in Aβ1-42-treated neurons [1] | p-Tau levels in Aβ1-42-treated neurons [1] | synaptic transmission after HFS in slices exposed to Aβ1-42 [2] | basal synaptic transmission [3] | synaptic transmission after LFS (magnitude of Aβ1-42-induced LTD) [3]
1 | Aβ1-42: amyloid beta 1-42, toxin used in the AD models [reference compound] | increases phosphorylation of tau | synaptic levels of p-Tau are increased | 96±7.5 % of baseline | 73±3.8 % of baseline |  |  |  |  | 
2 | SCSLPQTSGLQKPES (listed as Mus musculus) [leptin (116-130)] |  |  |  |  | prevents Aβ1-42-dependent phosphorylation of tau and it trafficking to synapses | prevents Aβ1-42-dependent phosphorylation of tau | 136±5.5 % of baseline | no significant effect on basal synaptic transmission | 94±5.2 % of baseline
3 | leptin (22-56): leptin fragment amino acids 22-56 (Bachem), comparison fragment (VPIQKVQDDTKTLIKTIVTRINDISHTQSVSSKQK; UniProt P41159 22-56, looked up, fragment) [reference compound] |  |  |  |  |  |  | 107±3.3 % of baseline | no significant effect on basal synaptic transmission | 73±4.0 % of baseline
4 | leptin: the metabolic hormone leptin, whole (full length) leptin molecule; human leptin from Sigma in SH-SY5Y work |  |  |  |  | prevents Aβ1-42-driven tau phosphorylation and its targeting to synapses | prevents Aβ1-42-driven tau phosphorylation | 135±6.3 % of baseline |  | 101±5.3 % of baseline
